Where only a bound is given, the exact number is not on record here.

What all share (format): biochemical
The target in one assay is Human mTOR (Homo sapiens, UniProt P42345). Briefly: mTOR kinase assay (DELFIA format, purified enzyme). Set-up: FLAG. The settings on record: read-out: TOR Kinase IC50.
A further assay has as its target PI3K-alpha (Homo sapiens, UniProt P42336). Briefly: PI3K-alpha fluorescence polarization assay. The settings on record: read-out: PI3 Kinase α IC50. Here is the method:
(§1) The reaction buffer was 20 mM HEPES, pH 7.5, 2 mM MgCl2, 0.05% CHAPS; and 0.01% βME (added fresh). The Stop/Detection Buffer was 100 mM HEPES, pH 7.5, 4 mM EDTA, 0.05% CHAPS; ATP 20 mM in water; PIP2 (diC8, Echelon, Salt Lake City Utah cat #P-4508) 1 mM in water (MW=856.5). The GST-GRP was 1.75 mg/mL or 1.4 mg/mL in 10% glycerol. The Red detector (TAMRA) was 2.5 μM. Nunc 384-well black polypropylene fluorescent plates were used for PI3K assays.
(§2) The assay is run by placing 5 μL of diluted enzyme per well, then 5 μL of diluted compound (or 9.5 μL enzyme then 0.5 μL compound in DMSO) is added and mixed. Then, 10 μL substrate is added to start the reaction. The samples are incubated 30-60 minutes, then the reaction is stopped by adding 20 μL stop/detector mix. PI3K is diluted with reaction buffer (e.g., 5 μL or 7.5 μL PI3K into 620 μL reaction buffer), and 5 μL of diluted enzyme is used per well. A 5 μL portion of reaction buffer or of drug diluted in buffer (e.g., 4 μL/100 so final DMSO is 1% in reaction) is added to each. Pipetting up and down mixes the samples. Alternatively, the enzyme can be diluted to 1215 μL. In this case 9.8 μL is added per well and 0.2 μL compound is added in DMSO.
(§3) To prepare 1 mL of substrate solution, 955 μL reaction buffer, 40 μL PIP2, and 2.5 μL ATP are mixed. 10 μL of substrate is added to each well to start the reaction. […] The stop/detector mix is prepared by mixing 4 μL Red detector and 1.6 μL or 2.0 μL GST-GRP with 1 mL stop buffer, which results in 10 nM probe and 70 nM GST-GRP. 20 μL of the stop/detector mix is added to each well to stop the reaction. The plates are read after 30-90 minutes keeping the red probe solutions dark. For the zero time point, stop/detector mix is added to the enzyme just before adding substrate. For an extra control, stop/detector mix is added to buffer (no enzyme) and substrate or to just buffer (no substrate). […] The recommended reaction has 0.06 μL per 20 μL (0.015 μg/20 μL) or 0.01125 μg/15 μL or 0.75 μg/mL.
(§4) Plates are read on machines with filters for TAMRA. The units are mP with no enzyme controls reading app 190-220 mP units. Fully active enzyme reduces fluorescence polarization down to 70-100 mP after 30 minutes. An active compound raises the mP values halfway to control or to 120-150 mP units.
In general terms: Fluorescence polarisation rises when a labelled molecule tumbles more slowly, as on binding a larger partner.

The next assay concerns the target PI3K-gamma (Homo sapiens, UniProt P48736). Briefly: PI3K-gamma fluorescence polarization assay. The settings on record: read-out: PI3 Kinase γ IC50. The method, then:
as §1, §2, §3, §4

PI3K-gamma, sequence (P48736 whole entry, species assumed): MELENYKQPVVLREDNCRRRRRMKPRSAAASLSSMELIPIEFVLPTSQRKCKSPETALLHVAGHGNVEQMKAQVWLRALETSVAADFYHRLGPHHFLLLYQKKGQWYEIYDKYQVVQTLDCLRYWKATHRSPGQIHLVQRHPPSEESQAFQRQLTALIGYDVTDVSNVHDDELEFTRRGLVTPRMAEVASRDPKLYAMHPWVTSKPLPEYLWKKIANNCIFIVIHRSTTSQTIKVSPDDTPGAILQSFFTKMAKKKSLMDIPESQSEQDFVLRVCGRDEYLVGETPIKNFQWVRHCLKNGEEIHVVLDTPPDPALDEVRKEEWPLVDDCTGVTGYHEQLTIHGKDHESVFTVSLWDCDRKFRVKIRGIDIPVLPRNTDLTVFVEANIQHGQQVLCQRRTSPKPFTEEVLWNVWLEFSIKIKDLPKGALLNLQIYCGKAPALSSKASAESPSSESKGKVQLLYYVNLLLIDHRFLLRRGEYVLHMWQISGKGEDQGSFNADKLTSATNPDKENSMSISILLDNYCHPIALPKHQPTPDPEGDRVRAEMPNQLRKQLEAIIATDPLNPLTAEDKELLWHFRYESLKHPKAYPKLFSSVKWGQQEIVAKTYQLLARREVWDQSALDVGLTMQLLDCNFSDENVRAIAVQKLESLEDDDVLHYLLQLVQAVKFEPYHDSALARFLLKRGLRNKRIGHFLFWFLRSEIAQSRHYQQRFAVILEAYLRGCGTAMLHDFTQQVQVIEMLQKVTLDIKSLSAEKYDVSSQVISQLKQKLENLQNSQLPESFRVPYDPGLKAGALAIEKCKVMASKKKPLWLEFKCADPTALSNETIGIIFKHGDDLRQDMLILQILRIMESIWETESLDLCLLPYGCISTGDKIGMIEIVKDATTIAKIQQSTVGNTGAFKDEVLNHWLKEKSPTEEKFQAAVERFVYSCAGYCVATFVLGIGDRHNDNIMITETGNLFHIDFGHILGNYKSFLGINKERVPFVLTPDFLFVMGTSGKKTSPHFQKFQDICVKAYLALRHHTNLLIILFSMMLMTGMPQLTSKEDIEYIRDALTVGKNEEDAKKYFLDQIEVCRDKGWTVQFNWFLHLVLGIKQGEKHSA
PI3K-alpha, sequence (P42336 whole entry, species assumed): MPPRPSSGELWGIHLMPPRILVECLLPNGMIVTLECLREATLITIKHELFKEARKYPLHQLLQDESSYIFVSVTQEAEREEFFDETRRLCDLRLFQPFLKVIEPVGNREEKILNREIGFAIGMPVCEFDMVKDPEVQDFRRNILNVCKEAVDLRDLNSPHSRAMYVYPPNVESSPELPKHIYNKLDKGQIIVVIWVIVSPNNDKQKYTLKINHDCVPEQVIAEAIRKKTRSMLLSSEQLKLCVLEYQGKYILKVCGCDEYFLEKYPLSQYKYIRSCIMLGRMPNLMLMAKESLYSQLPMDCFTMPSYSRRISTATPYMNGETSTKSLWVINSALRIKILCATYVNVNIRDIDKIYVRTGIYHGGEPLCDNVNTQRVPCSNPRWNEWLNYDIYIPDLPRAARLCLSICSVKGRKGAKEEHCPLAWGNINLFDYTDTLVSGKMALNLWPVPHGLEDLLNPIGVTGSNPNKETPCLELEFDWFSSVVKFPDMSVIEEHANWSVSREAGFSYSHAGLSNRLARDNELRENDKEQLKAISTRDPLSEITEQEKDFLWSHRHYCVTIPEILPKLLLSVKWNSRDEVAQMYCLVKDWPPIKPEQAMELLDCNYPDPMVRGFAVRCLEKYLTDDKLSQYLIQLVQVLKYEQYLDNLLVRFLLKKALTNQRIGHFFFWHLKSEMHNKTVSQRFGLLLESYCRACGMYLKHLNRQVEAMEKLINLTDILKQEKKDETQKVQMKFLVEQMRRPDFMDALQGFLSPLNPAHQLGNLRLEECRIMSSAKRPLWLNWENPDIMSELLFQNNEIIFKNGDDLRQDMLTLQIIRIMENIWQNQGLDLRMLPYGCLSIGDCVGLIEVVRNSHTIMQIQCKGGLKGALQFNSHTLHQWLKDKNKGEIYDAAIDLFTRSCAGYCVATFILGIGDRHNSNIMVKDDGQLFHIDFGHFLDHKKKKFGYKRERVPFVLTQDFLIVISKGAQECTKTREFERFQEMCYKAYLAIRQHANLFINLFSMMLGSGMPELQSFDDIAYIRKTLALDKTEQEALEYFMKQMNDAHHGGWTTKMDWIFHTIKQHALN
PI3K-alpha, sequence (P27986 whole entry partner, species assumed): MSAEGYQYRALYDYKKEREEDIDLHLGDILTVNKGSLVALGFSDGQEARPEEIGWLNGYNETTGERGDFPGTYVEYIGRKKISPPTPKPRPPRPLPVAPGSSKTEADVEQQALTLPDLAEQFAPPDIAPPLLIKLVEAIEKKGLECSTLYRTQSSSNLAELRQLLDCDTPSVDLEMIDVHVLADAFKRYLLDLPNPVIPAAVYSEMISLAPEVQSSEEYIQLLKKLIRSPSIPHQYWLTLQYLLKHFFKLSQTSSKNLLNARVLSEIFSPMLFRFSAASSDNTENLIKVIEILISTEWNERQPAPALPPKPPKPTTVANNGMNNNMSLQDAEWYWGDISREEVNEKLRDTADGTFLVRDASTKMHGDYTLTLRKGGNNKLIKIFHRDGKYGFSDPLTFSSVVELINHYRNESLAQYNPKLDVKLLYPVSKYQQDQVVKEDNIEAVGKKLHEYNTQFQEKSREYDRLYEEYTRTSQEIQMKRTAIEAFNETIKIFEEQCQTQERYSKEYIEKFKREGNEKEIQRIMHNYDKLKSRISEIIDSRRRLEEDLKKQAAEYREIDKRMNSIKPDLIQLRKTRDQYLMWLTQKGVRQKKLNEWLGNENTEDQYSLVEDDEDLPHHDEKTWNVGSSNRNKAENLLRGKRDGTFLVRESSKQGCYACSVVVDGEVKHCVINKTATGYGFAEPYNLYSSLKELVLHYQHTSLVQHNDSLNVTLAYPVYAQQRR

For orientation: IC50 means the point on the concentration scale where inhibition reaches its midpoint. As to `Oc1cccc(-c2nc(N3CCOCC3)c3ccc4c(ccn4Cc4ccccc4)c3n2)c1` [Example 46, 3-(7-benzyl-4-morpholin-4-yl-7H-pyrrolo[2,3-h]quinazolin-2-yl)phenol], the IC50 at Human mTOR turned out to be 420 nM; at PI3K-alpha, 216 nM; at PI3K-gamma, 209 nM.
In the case of `COc1ccc(-c2nc(N3CCOCC3)c3ccc4c(ccn4C)c3n2)cn1` [Example 47, 2-(6-methoxypyridin-3-yl)-7-methyl-4-morpholin-4-yl-7H-pyrrolo[2,3-h]quinazoline], the values for the IC50 on Human mTOR, at PI3K-alpha and on PI3K-gamma were 2050 nM, greater than 10000 nM and greater than 10000 nM, respectively.
Consider `Cn1ccc2c3nc(-c4ccc(O)nc4)nc(N4CCOCC4)c3ccc21` [Example 48, 5-(7-methyl-4-morpholin-4-yl-7H-pyrrolo[2,3-h]quinazolin-2-yl)pyridin-2-ol], for which the concentration for half-maximal inhibition (IC50) is 7550 nM on Human mTOR, greater than 10000 nM at PI3K-alpha and greater than 10000 nM at PI3K-gamma.
`COc1ncc(-c2nc(N3CCOCC3)c3ccc4c(ccn4C)c3n2)cn1` [Example 50, 2-(2-methoxypyrimidin-5-yl)-7-methyl-4-morpholin-4-yl-7H-pyrrolo[2,3-h]quinazoline]: the IC50 on Human mTOR is 2350 nM; at PI3K-alpha it was 668 nM; at PI3K-gamma, greater than 10000 nM.
The like results for `Cn1ccc2c3nc(-c4cc(O)ccc4Cl)nc(N4CCOCC4)c3ccc21` [Example 53, 4-chloro-3-(7-methyl-4-morpholin-4-yl-7H-pyrrolo[2,3-h]quinazolin-2-yl)phenol] were, in that order, 910 nM, 214 nM and 1010 nM.
For `CN(C)S(=O)(=O)Nc1cccc(-c2nc(N3CCOCC3)c3ccc4c(ccn4C)c3n2)c1` [Example 55, N,N-dimethyl-N′-[3-(7-methyl-4-morpholin-4-yl-7H-pyrrolo[2,3-h]quinazolin-2-yl)phenyl]sulfamide] the same measures were 525 nM, 4340 nM and 6160 nM.
Regarding `Cn1ccc2c3nc(-c4cccc(S(=O)(=O)NC5CC5)c4)nc(N4CCOCC4)c3ccc21` [Example 56, N-cyclopropyl-3-(7-methyl-4-morpholin-4-yl-7H-pyrrolo[2,3-h]quinazolin-2-yl)benzenesulfonamide], the IC50 on Human mTOR was determined as 50 nM; on PI3K-alpha, 6970 nM; on PI3K-gamma it was 6700 nM.
For `OCc1cccc(-c2nc(N3CCOCC3)c3ccc4[nH]ccc4c3n2)c1` [Example 57], the IC50 on Human mTOR is 235 nM; on PI3K-alpha, 514 nM; on PI3K-gamma, 3580 nM.
Consider `Nc1ncc(-c2nc(N3CCOCC3)c3ccc4[nH]ccc4c3n2)cn1` [Example 58, -(4-morpholin-4-yl-7H-pyrrolo[2,3-h]quinazolin-2-yl)pyrimidin-2-amine], for which the half-maximal inhibitory concentration (IC50) on Human mTOR was determined as 155 nM; at PI3K-alpha, 102 nM; at PI3K-gamma, 471 nM.
`CS(=O)(=O)n1ccc2c3nc(-c4cccc(O)c4)nc(N4CCOCC4)c3ccc21` [Example 59, 3-[7-(methylsulfonyl)-4-morpholin-4-yl-7H-pyrrolo[2,3-h]quinazolin-2-yl]phenol]: the half-inhibitory concentration (IC50) was 2600 nM on Human mTOR, 63 nM on PI3K-alpha and 560 nM at PI3K-gamma.
Regarding `CC(C)(C)OC(=O)Cn1ccc2c3nc(-c4ccc(N)nc4)nc(N4CCOCC4)c3ccc21` [Example 60, tert-butyl [2-(6-aminopyridin-3-yl)-4-morpholin-4-yl-7H-pyrrolo[2,3-h]quinazolin-7-yl]acetate], the IC50 at Human mTOR was 1350 nM; on PI3K-alpha, 775 nM; on PI3K-gamma it was 4890 nM.
With `O=C(Nc1ccncc1)Nc1ccc(-c2nc(N3CCOCC3)c3ccc4c(ccn4S(=O)(=O)C4CCN(C(=O)OCc5ccccc5)CC4)c3n2)cc1` [Example 61, benzyl 4-[(4-morpholin-4-yl-2-{4-[(pyridin-4-ylcarbamoyl)amino]phenyl}-7H-pyrrolo[2,3-h]quinazolin-7-yl)sulfonyl]piperidine-1-carboxylate], the IC50 at Human mTOR stood at 130 nM; at PI3K-alpha, 384 nM; on PI3K-gamma, 3490 nM.
Take `O=C(Nc1ccncc1)Nc1ccc(-c2nc(N3CCOCC3)c3ccc4c(ccn4S(=O)(=O)C4CCNCC4)c3n2)cc1` [Example 62, 1-{4-[4-morpholin-4-yl-7-(piperidin-4-ylsulfonyl)-7H-pyrrolo[2,3-h]quinazolin-2-yl]phenyl}-3-pyridin-4-ylurea]: the IC50 at Human mTOR was 28 nM; at PI3K-alpha it was 114 nM; on PI3K-gamma, 519 nM.
For `CN1CCC(S(=O)(=O)n2ccc3c4nc(-c5ccc(NC(=O)Nc6ccncc6)cc5)nc(N5CCOCC5)c4ccc32)CC1` [Example 63, 1-(4-{7-[(1-methylpiperidin-4-yl)sulfonyl]-4-morpholin-4-yl-7H-pyrrolo[2,3-h]quinazolin-2-yl}phenyl)-3-pyridin-4-ylurea] the same measures were 67 nM, 119 nM and 491 nM.
Take `CCN1CCC(S(=O)(=O)n2ccc3c4nc(-c5ccc(NC(=O)Nc6ccncc6)cc5)nc(N5CCOCC5)c4ccc32)CC1` [Example 64, 1-(4-{7-[(1-ethylpiperidin-4-yl)sulfonyl]-4-morpholin-4-yl-7H-pyrrolo[2,3-h]quinazolin-2-yl}phenyl)-3-pyridin-4-ylurea]: the IC50 turned out to be 44 nM at Human mTOR, 74 nM at PI3K-alpha and 313 nM on PI3K-gamma.
On to `CC(C)N1CCC(S(=O)(=O)n2ccc3c4nc(-c5ccc(NC(=O)Nc6ccncc6)cc5)nc(N5CCOCC5)c4ccc32)CC1` [Example 65, 1-(4-{7-[(1-isopropylpiperidin-4-yl)sulfonyl]-4-morpholin-4-yl-7H-pyrrolo[2,3-h]quinazolin-2-yl}phenyl)-3-pyridin-4-ylurea], for which the figures for the IC50 at Human mTOR, on PI3K-alpha and on PI3K-gamma were 73 nM, 48 nM and 300 nM, respectively.
As for `O=C(OCc1ccccc1)N1CCC(S(=O)(=O)n2ccc3c4nc(-c5cccc(O)c5)nc(N5CCOCC5)c4ccc32)CC1` [Example 66, benzyl 4-{[2-(3-hydroxyphenyl)-4-morpholin-4-yl-7H-pyrrolo[2,3-h]quinazolin-7-yl]sulfonyl}piperidine-1-carboxylate], the IC50 at Human mTOR came to 2250 nM; at PI3K-alpha it was 245 nM; at PI3K-gamma, 5750 nM.
In the case of `O=S(=O)(C1CCNCC1)n1ccc2c3nc(-c4cccc(O)c4)nc(N4CCOCC4)c3ccc21` [Example 67, 3-[4-morpholin-4-yl-7-(piperidin-4-ylsulfonyl)-7H-pyrrolo[2,3-h]quinazolin-2-yl]phenol], the IC50 worked out at 670 nM on Human mTOR, 231 nM on PI3K-alpha and 1580 nM at PI3K-gamma.
For the compound `O=S(=O)(c1ccccc1)n1ccc2c3nc(-c4cccc(O)c4)nc(N4CCOCC4)c3ccc21` [Example 69, 3-[4-morpholin-4-yl-7-(phenylsulfonyl)-7H-pyrrolo[2,3-h]quinazolin-2-yl]phenol], the IC50 at Human mTOR was determined as 1110 nM; on PI3K-alpha, 274 nM; on PI3K-gamma, 1130 nM.
In the case of `O=S(=O)(c1ccccc1)n1ccc2c3nc(-c4cccc(CO)c4)nc(N4CCOCC4)c3ccc21` [Example 70, {3-[4-morpholin-4-yl-7-(phenylsulfonyl)-7H-pyrrolo[2,3-h]quinazolin-2-yl]phenyl}methanol], the results for the IC50 at Human mTOR, at PI3K-alpha and on PI3K-gamma were 5800 nM, 168 nM and 2070 nM, respectively.
As to `Nc1ncc(-c2nc(N3CCOCC3)c3ccc4c(ccn4S(=O)(=O)c4ccccc4)c3n2)cn1` [Example 71, 5-[4-morpholin-4-yl-7-(phenylsulfonyl)-7H-pyrrolo[2,3-h]quinazolin-2-yl]pyrimidin-2-amine], the figures for the IC50 on Human mTOR, on PI3K-alpha and on PI3K-gamma were 545 nM, 52 nM and 114 nM, respectively.
Regarding `O=S(=O)(c1ccccc1)n1ccc2c3nc(-c4cccc5[nH]ncc45)nc(N4CCOCC4)c3ccc21` [Example 72, 2-(1H-indazol-4-yl)-4-morpholin-4-yl-7-(phenylsulfonyl)-7H-pyrrolo[2,3-h]quinazoline], the values for the half-inhibitory concentration (IC50) on Human mTOR, on PI3K-alpha and on PI3K-gamma were 3250 nM, 4010 nM and 5160 nM, respectively.

The values are drawn from patent publication US20090227575A1, “7H-PYRROLO[2,3-H]QUINAZOLINE COMPOUNDS, THEIR USE AS mTOR KINASE AND PI3 KINASE INHIBITORS, AND THEIR [sequence]” (Wyeth, priority 2008, published 2009).
